Measurements published in patent publication US11230541B2, “Heterocyclic compound” (Takeda Pharmaceutical Company Limited, priority 2017, dated 2022).

biological target: T1, NMDA receptor composed of four subunits including 2 sets of heterodimers of NR1 and NR2B (Homo sapiens, UniProt Q13224); assay: NR2B Ca2+ influx assay (FLIPR, Fluo-4) in HEK293 cells expressing human GRIN1 and GRIN2B; assay type: cell-based; conditions: HEK293, 10 μM final compound concentration, glutamic acid/glycine-induced Ca2+ influx, read-out: inhibitory rate (10 μM compound concentration)
T1 construct: host or cells: HEK293 (tetracycline-induced expression)
T1 sequence (Q13224 27-1484, other chains not shown): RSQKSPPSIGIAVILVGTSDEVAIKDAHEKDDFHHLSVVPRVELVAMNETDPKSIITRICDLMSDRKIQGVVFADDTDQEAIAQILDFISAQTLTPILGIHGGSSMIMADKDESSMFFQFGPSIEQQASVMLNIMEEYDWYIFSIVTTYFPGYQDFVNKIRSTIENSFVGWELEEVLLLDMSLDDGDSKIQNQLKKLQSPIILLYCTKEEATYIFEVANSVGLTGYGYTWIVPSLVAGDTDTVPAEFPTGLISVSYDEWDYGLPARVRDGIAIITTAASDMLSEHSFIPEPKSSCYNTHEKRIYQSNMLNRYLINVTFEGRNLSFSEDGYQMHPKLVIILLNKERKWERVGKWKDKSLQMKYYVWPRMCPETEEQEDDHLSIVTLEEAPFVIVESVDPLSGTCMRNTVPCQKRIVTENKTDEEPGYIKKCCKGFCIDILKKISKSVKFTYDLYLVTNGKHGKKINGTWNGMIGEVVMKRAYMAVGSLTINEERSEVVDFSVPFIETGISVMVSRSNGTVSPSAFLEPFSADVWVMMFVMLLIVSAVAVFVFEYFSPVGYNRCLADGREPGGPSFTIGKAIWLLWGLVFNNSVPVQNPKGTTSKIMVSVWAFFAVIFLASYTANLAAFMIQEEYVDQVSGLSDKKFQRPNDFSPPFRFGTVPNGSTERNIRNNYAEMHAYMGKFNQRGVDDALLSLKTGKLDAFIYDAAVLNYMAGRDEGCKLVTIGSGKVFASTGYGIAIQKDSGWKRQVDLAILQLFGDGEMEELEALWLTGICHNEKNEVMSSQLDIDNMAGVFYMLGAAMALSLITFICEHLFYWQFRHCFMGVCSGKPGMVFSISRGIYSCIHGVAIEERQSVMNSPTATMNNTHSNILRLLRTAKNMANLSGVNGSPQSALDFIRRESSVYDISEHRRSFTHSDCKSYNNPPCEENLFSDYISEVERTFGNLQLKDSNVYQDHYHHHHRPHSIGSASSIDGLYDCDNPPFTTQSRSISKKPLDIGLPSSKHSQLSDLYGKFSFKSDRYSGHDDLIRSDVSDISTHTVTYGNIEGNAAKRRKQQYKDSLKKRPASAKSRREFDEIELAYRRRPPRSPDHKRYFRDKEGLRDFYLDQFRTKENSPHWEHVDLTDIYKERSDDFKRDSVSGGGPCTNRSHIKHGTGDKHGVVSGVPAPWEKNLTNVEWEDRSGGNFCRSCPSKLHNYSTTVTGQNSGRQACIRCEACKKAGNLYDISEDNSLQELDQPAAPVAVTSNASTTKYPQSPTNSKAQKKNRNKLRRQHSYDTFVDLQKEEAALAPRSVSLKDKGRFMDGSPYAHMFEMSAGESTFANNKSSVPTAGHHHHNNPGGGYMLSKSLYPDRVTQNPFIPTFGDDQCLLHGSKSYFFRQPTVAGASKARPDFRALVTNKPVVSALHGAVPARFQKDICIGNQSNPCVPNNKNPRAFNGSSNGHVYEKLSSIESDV
In short: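 Tetracycline-induced (2 h) HEK293 cells expressing human GRIN1/GRIN2B, Fluo-4-loaded, were preincubated 15 min at room temperature with compound at 10 μM final. FLIPR recorded Ca2+ influx every 3 s for 5 min after glutamate/glycine addition (30 μM in added buffer); inhibition from cumulative fluorescence relative to agonist-free wells.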

| inhibition at 10 µM [%] | SMILES |
| --- | --- |
| 65 | COc1c(F)cc(C(=O)NCc2cccc3ncn(C)c23)cc1F [Example 160, 3,5-difluoro-4-methoxy-N-((1-methyl-1H-benzimidazol-7-yl)methyl)benzamide] |
| 97 | Cc1ccc2[nH]nnc2c1CNC(=O)c1ccc(OC(F)F)cc1 [Example 265, 4-(difluoromethoxy)-N-((5-methyl-1H-benzotriazol-4-yl)methyl)benzamide] |
| 84 | COc1ccc(C(=O)NCc2c(OC)ccc3ncn(C)c23)s1 [Example 48, 5-methoxy-N-((6-methoxy-1-methyl-1H-benzimidazol-7-yl)methyl)thiophene-2-carboxamide] |
| 60 | COc1ccc2nc(C)n(C)c2c1CNC(=O)c1cc(F)c(C)c(F)c1 [Example 239, 3,5-difluoro-N-((6-methoxy-1,2-dimethyl-1H-benzimidazol-7-yl)methyl)-4-methylbenzamide] |
| 93 | O=C(NCc1c(C2CC2)ccc2[nH]ncc12)c1ccc(OC(F)(F)F)c(F)c1 [Example 88, N-((5-cyclopropyl-1H-indazol-4-yl)methyl)-3-fluoro-4-(trifluoro-methoxy)benzamide] |
| 93 | O=C(NCc1c(F)ccc2[nH]ncc12)c1ccc(OC(F)(F)F)cc1 [Example 273, N-[(5-fluoro-1H-indazol-4-yl)methyl]-4-(trifluoromethoxy)-benzamide] |
| 67 | COc1c(F)cc(C(=O)NCc2cccc3[nH]nc(C)c23)cc1F [Example 270, 3,5-difluoro-4-methoxy-N-((3-methyl-1H-indazol-4-yl)methyl)benzamide] |
| 96 | COc1c(F)cc(C(=O)NCc2c(C)ccc3[nH]nnc23)cc1F [Example 197, 3,5-difluoro-4-methoxy-N-((5-methyl-1H-benzotriazol-4-yl)methyl)benzamide] |
| 88 | COc1ccc2ncn(C)c2c1CNC(=O)c1ccc(OC(F)F)nc1 [Example 276, 6-(difluoromethoxy)-N-[(6-methoxy-l-methyl-1H-benzimidazol-7-yl)methyl]pyridine-3-carboxamide] |
| 94 | Cc1ccc(C(=O)NCc2c(C3CC3)ccc3[nH]ncc23)cc1F [Example 93, N-((5-cyclopropyl-1H-indazol-4-yl)methyl)-3-fluoro-4-methyl-benzamide] |
| 69 | COc1ccc2ncn(C)c2c1CNC(=O)c1cc(Cl)c(F)c(Cl)c1 [Example 49, 3,5-dichloro-4-fluoro-N-((6-methoxy-1-methyl-1H-benzimidazol-7-yl)methyl)benzamide] |
| 64 | COc1ccc2nc(C)n(C)c2c1CNC(=O)c1csc(C(F)F)c1 [Example 232, 5-(difluoromethyl)-N-((6-methoxy-1,2-dimethyl-lH-benzimidazol-7-yl)methyl)thiophene-3-carboxamide] |
| 86 | O=C(NCc1cccc2[nH]ncc12)c1ccc(C(F)F)c(Cl)c1 [Example 190, 3-chloro-4-(difluoromethyl)-N-(1H-indazol-4-ylmethyl)benzamide] |
| 77 | COc1ccc2ncn(C)c2c1CNC(=O)c1ccc(C)s1 [Example 32, N-((6-methoxy-1-methyl-1H-benzimidazol-7-yl)methyl)-5-methylthiophene-2-carboxamide] |
| 92 | CCc1ccc2ncn(C)c2c1CNC(=O)c1ccc(OC(F)F)nc1 [Example 164, 6-(difluoromethoxy)-N-((6-ethyl-1-methyl-1H-benzimidazol-7-yl)methyl)nicotinamide] |
| 58 | COc1ccc2nc(C)n(C)c2c1CNC(=O)c1ccc(C(F)F)c(Cl)c1 [Example 250] |

| inhibition at 10 µM [%] | SMILES |
| --- | --- |
| 85 | CCOc1ncc(C(=O)NCc2cccc3[nH]ncc23)cc1F [Example 171, 6-ethoxy-5-fluoro-N-(1H-indazol-4-ylmethyl)nicotinamide] |
| 84 | COc1ccc2nc(C)n(C)c2c1CNC(=O)c1ccc(OC(F)F)c(F)c1 [Example 253, 4-(difluoromethoxy)-3-fluoro-N-((6-methoxy-1,2-dimethyl-1H-benzimidazol-7-yl)methyl)benzamide] |
| 94 | COc1ccc2ncn(C)c2c1CNC(=O)c1cnc(OC(F)F)c(F)c1 [Example 59, 6-(difluoromethoxy)-5-fluoro-N-((6-methoxy-1-methyl-1H-benzimidazol-7-yl)-methyl)nicotinamide] |
| 62 | COc1ccc2nc(C)n(C)c2c1CNC(=O)c1ccc(Cl)s1 [Example 229, 5-chloro-N-((6-methoxy-1,2-dimethyl-1H-benzimidazol-7-yl)methyl)thiophene-2-carboxamide] |
| 67 | O=C(NCc1cccc2[nH]ncc12)c1cc(F)c(Cl)c(F)c1 [Example 189, 4-chloro-3,5-difluoro-N-(1H-indazol-4-ylmethyl)benzamide] |
| 92 | COc1ccc(C(=O)NCc2c(C3CC3)ccc3[nH]ncc23)s1 [Example 67, N-((5-cyclopropyl-1H-indazol-4-yl)methyl)-methoxythiophene-2-carboxamide] |
| 59 | COc1ccc2nc(C)n(C)c2c1CNC(=O)c1ccc(C(F)(F)F)c(F)c1 [Example 236, 3-fluoro-N-((6-methoxy-1,2-dimethyl-1H-benzimidazol-7-yl)methyl)-4-(trifluoromethyl)-benzamide] |
| 91 | COc1ccc2ncn(C)c2c1CNC(=O)c1ccc(F)c(Cl)c1 [Example 37, 3-chloro-4-fluoro-N-((6-methoxy-1-methyl-1H-benzimidazol-7-yl)methyl)benzamide] |
| 92 | CCOc1ccc2ncn(C)c2c1CNC(=O)c1csc(C(F)F)c1 [Example 125, 5-(difluoromethyl)-N-((6-ethoxy-1-methyl-1H-benzimidazol-7-yl)methyl)thiophene-3-carboxamide] |
| 93 | COCc1ccc2ncn(C)c2c1CNC(=O)c1ccc(OC(F)F)c(Cl)c1 [Example 283, 3-chloro-4-(difluoromethoxy)-N-{[6-(methoxymethyl)-1-methyl-1H-benzimidazol-7-yl]methyl}benzamide] |
| 93 | COc1ncc(C(=O)NCc2c(C3CC3)ccc3[nH]ncc23)cc1F [Example 96, N-((5-cyclopropyl-1H-indazol-4-yl)methyl)-fluoro-6-methoxy-nicotinamide] |
| 53 | COc1ccc2nc(C)n(C)c2c1CNC(=O)c1cc(F)c(C(F)F)c(F)c1 [Example 240, 4-(difluoromethyl)-3,5-difluoro-N-((6-methoxy-1,2-dimethyl-1H-benzimidazol-7-yl)methyl)benzamide] |
| 94 | COc1ccc2ncn(C)c2c1CNC(=O)c1ccc(C(F)(F)F)c(F)c1 [Example 13, 3-fluoro-N-((6-methoxy-1-methyl-1H-benzimidazol-7-yl)methyl)-4-(trifluoromethyl)benzamide] |
| 90 | COc1ccc2ncn(C)c2c1CNC(=O)c1ccc(C(F)(F)F)cc1 [Example 117, N-((6-methoxy-1-methyl-1H-benzimidazol-7-yl)methyl)-4-(trifluoromethyl)benzamide] |
| 52 | O=C(NCc1cccc2[nH]ncc12)c1cc(F)c(F)c(Cl)c1 [Example 188, 3-chloro-4,5-difluoro-N-(1H-indazol-4-ylmethyl)benzamide] |
